Reference: US11235020B2, “Methods and compositions for inhibiting glyoxalase 1 (GLO1)” (priority 2013, dated 2022)
Values joined by “and” are separate entries in the source; they are usually repeats but may differ in a detail not shown here. Equal values may be shown once.

Legend:
mice = test: Observation of sedation or gross deficits in treated mice; settings: MG 300 mg/kg, WT B6 mice, data not shown
[1] = system: anxiety-like behavior and locomotion in mice; test: Open field (OF) test; format: in vivo, mouse
Procedure: OF test: Mice were placed into the center of the OF, and activity was monitored for five to ten minutes. The apparatus was illuminated to approximately 40 lux. Data were collected and processed using the manufacturer's software (AccuScan Instruments).
OF test: Ten minutes post-injection, mice were placed into the center of the OF. The apparatus was illuminated to approximately 40 lux. Behavior was measured as described above.
OF test replication studies: Ten to twenty minutes post-injection, mice were tested in the OF for five to ten minutes. In some experiments, behavior was scored as described above. In other experiments, mice were tested in the OF, and behavior was automatically scored by the Noldus Ethovision System. For mice tested in the Noldus system, the apparatus was illuminated to approximately 1,000 lux.
Chronic MG administration: For five days, mice were injected twice daily with vehicle or MG (4 mg/kg). Twelve hours after the final injection, mice were tested in the OF as described above.
Pure MG: Pure MG was obtained from Dr. John Termini at the City of Hope, Duarte, Calif. It was administered at the indicated doses by i.p. injection. Mice were tested as described above.
OF test: Two hours post-injection, mice were tested in the OF test as described above. The center size was 10×10 cm. The apparatus was illuminated to approximately 40 lux.

[2] = system: pilocarpine-induced seizures; test: Pilocarpine-induced seizures; format: in vivo, mouse
Procedure: Drug administration: All experiments with MG utilized crude MG obtained from Sigma-Aldrich. For pre-treatment, MG (50 or 200 mg/kg) or vehicle (0.9% saline) was administered by i.p. injection 10 minutes before the seizure-inducing agent. For treatment after seizure onset, MG (200 mg/kg) or vehicle (0.9% saline) was administered by i.p. injection ten minutes after seizure onset. For GLO1 inhibition, BrBzGCp2 (50 mg/kg) or vehicle (8% DMSO and 18% Tween-80) was administered by i.p. injection two hours before seizure induction.
Seizure induction: For picrotoxin-induced seizures, 5 mg/kg of picrotoxin in 0.9% saline was administered by i.p. injection. Seizures were scored for one hour after picrotoxin administration. For pilocarpine-induced seizures, mice were pre-treated with atropine (5 mg/kg in 0.9% saline) by i.p. injection in order to reduce the peripheral effects of pilocarpine. Thirty minutes after atropine administration, pilocarpine was administered by i.p. injection. B6 mice were treated with 250 mg/kg pilocarpine in 0.9% saline, and FVB mice (WT and Tg) were treated with 300 mg/kg pilocarpine in 0.9% saline. Seizures were scored for 90 minutes after pilocarpine administration.
Pilocarpine-induced seizures were scored as previously reported (Winawer 2011):
Stage 1: Immobility/Lying Low
Stage 2: Partial (limbic) seizures. Non-continuous twitching/tremor/shaking of tail/head/body/limbs, forelimb and/or tail extension, rigid posture, repetitive movements, head bobbing
Stage 3: Partial status epilepticus. Continuous tremor/clonic seizures of body and tail while retaining posture
Stage 4: Generalized seizures. Rearing/hyperexcitability/running/falling, tonic extension/clonic seizures with loss of posture
Stage 5: Generalized status epilepticus (continuous stage 4 seizures) resulting in death

[3] = system: depression-like behavior in mice; test: Tail suspension test (TST); format: in vivo, mouse; settings: MG 50 mg/kg i.p., acute, 10 min before test, B6 mice
Procedure: Mice were suspended by their tails using adhesive tape attached to a bar elevated approximately 46 cm above a table. The apparatus was illuminated to approximately 1,000 lux. Mice were tested individually, and time spent immobile was scored manually for six minutes. For MG studies, mice were treated with vehicle (0.9% saline) or crude MG (Sigma-Aldrich, 50 mg/kg) by i.p. injection ten minutes before the test. Behavior was scored for five minutes.

glutamate receptors = test: Glutamatergic currents in CGN; format: cell-based, rat; settings: 10 μM MG
Text: Ligand-gated currents: Ligand-gated currents were studied in voltage-clamp mode by application of reagents to cells held at −50 mV. GABAergic and glycinergic currents were activated by application of GABA and glycine and antagonized by application of SR and strychnine, respectively (Kaneda 1995). Glutamatergic currents were activated by 1-glutamate and antagonized by CNQX and AP-5 (Wyllie 1994).

[4] = MG 50 mg/kg i.p., male WT B6 mice, 10 min post-injection
[5] = MG 50 and 200 mg/kg pre-treatment, pilocarpine 250 mg/kg, B6 mice

CC(=O)C=O [MG, methylglyoxal]
sedation (mice): caused sedation
anxiety-like behavior in the OF after chronic treatment ([1]; MG 4 mg/kg i.p. twice daily for five days, tested on the sixth day): significant reduction in anxiety-like behavior
center time in the OF ([1]; MG 50 mg/kg i.p., CD-1 mice): increased center time in the OF
distance traveled in the OF ([1]; MG 50 mg/kg i.p., CD-1 mice): without affecting distance traveled
anxiety-like behavior in the OF in mice with the Glo1 duplication ([1]; MG 50 mg/kg i.p., CD-1 mice with Glo1 duplication): reduced anxiety-like behavior in mice with the Glo1 duplication
distance traveled in the OF [1, 4]: without affecting distance traveled
increase in center time in the OF [1, 4]: approximately 30%
persistence of anxiolytic effect after injection ([1]; MG 50 mg/kg i.p., separate cohorts tested at different intervals): ≤ 20 min
Cohen's d, meta-analysis of anxiolytic effect in the OF test ([1]; MG 50 mg/kg i.p., seven experiments, total n = 181, fixed-effect model): 0.78 and 0.7798
locomotion in the OF ([1]; MG 100 mg/kg, WT B6 mice): decreased locomotion in the OF
seizure duration, treatment of ongoing seizures ([2]; MG 200 mg/kg given 10 min after pilocarpine 250 mg/kg): reduced seizure duration in mice undergoing pilocarpine-induced seizures
highest seizure stage reached [2, 5]: reduced seizure stage
latency to reach stage 3 (seizure onset) [2, 5]: dose-dependently delayed seizure onset
time spent in stage 3 (seizure duration) [2, 5]: reduced seizure duration
duration of immobility in the TST [3]: did not affect the duration of immobility
activation of glutamate receptors (glutamate receptors): did not activate
